Values of other authors, collected in PubChem BioAssay AID1259409 (Chemical Carcinogenesis Research Information System (CCRIS), 2018).
Several values for one entry are separate records, joined by “and”; a condition that tells them apart may be missing. Equal values may be shown once.

Test system: rodent chemically induced tumor inhibition, incidence and multiplicity
Assay: CCRIS tumor inhibitor studies
Settings: Route [Inhibitor]: ORAL, Species: RAT

Row | Structure (SMILES) | tumour outcome (control, treated, inhibition, significance) (Carcinogen: DIETHYLNITROSAMINE, 55-18-5, Dose [Inhibitor]: 0, 125 PPM IN DIET BEGINNING 1 WK POST CARCINOGEN DOSE (STUDY DURATION: 36 WK), Strain/Sex: F344/MALE, Target Tissue: Type of Lesion: LIVER: TUMOR, Dose [Carcinogen]: 200 MG/KG BW ONCE, Promoter: PHENOBARBITAL, 50-06-6) | tumour outcome (control, treated, inhibition, significance) (Carcinogen: N-METHYL-N'-NITRO-N-NITROSOGUANIDINE, 70-25-7, Dose [Inhibitor]: 0, 100 PPM IN DIET FOR FIRST 25 WK (STUDY DURATION: 55 WK), Strain/Sex: WISTAR/MALE, Target Tissue: Type of Lesion: DUODENUM: ADENOMA, ADENOCARCINOMA OR SARCOMA, Dose [Carcinogen]: 100 MG/L IN DRINKING WATER FOR FIRST 25 WK, Promoter: GLYOXAL, 107-22-2) | tumour outcome (control, treated, inhibition, significance) (Carcinogen: N-METHYL-N'-NITRO-N-NITROSOGUANIDINE, 70-25-7, Dose [Inhibitor]: 0, 100 PPM IN DIET FOR FIRST 25 WK (STUDY DURATION: 55 WK), Strain/Sex: WISTAR/MALE, Target Tissue: Type of Lesion: FORESTOMACH: PAPILLOMA, Dose [Carcinogen]: 100 MG/L IN DRINKING WATER FOR FIRST 25 WK, Promoter: GLYOXAL, 107-22-2) | tumour outcome (control, treated, inhibition, significance) (Carcinogen: N-METHYL-N'-NITRO-N-NITROSOGUANIDINE, 70-25-7, Dose [Inhibitor]: 0, 100 PPM IN DIET FOR FIRST 25 WK (STUDY DURATION: 55 WK), Strain/Sex: WISTAR/MALE, Target Tissue: Type of Lesion: GASTROINTESTINAL TRACT (UPPER): BENIGN OR MALIGNANT TUMOR, Dose [Carcinogen]: 100 MG/L IN DRINKING WATER FOR FIRST 25 WK, Promoter: GLYOXAL, 107-22-2) | tumour outcome (control, treated, inhibition, significance) (Carcinogen: N-METHYL-N'-NITRO-N-NITROSOGUANIDINE, 70-25-7, Dose [Inhibitor]: 0, 100 PPM IN DIET FOR FIRST 25 WK (STUDY DURATION: 55 WK), Strain/Sex: WISTAR/MALE, Target Tissue: Type of Lesion: GLANDULAR STOMACH: ADENOMA, ADENOCARCINOMA OR SARCOMA, Dose [Carcinogen]: 100 MG/L IN DRINKING WATER FOR FIRST 25 WK, Promoter: GLYOXAL, 107-22-2) | tumour outcome (control, treated, inhibition, significance) (Carcinogen: N-METHYL-N'-NITRO-N-NITROSOUGUANIDINE, 70-25-7, Dose [Inhibitor]: 0, 25 PPM IN DIET FOR THE DURATION OF THE STUDY (STUDY DURATION: 55 WK), Strain/Sex: WISTAR/MALE, Target Tissue: Type of Lesion: BILE DUCT: CHOLANGIOMA, Dose [Carcinogen]: 100 MG/L IN DRINKING WATER FOR FIRST 25 WK, Promoter: GLYOXAL, 107-22-2) | tumour outcome (control, treated, inhibition, significance) (Carcinogen: N-METHYL-N'-NITRO-N-NITROSOUGUANIDINE, 70-25-7, Dose [Inhibitor]: 0, 25 PPM IN DIET FOR THE DURATION OF THE STUDY (STUDY DURATION: 55 WK), Strain/Sex: WISTAR/MALE, Target Tissue: Type of Lesion: FORESTOMACH: PAPILLOMA, Dose [Carcinogen]: 100 MG/L IN DRINKING WATER FOR FIRST 25 WK, Promoter: GLYOXAL, 107-22-2) | tumour outcome (control, treated, inhibition, significance) (Carcinogen: N-METHYL-N'-NITRO-N-NITROSOUGUANIDINE, 70-25-7, Dose [Inhibitor]: 0, 25 PPM IN DIET FOR THE DURATION OF THE STUDY (STUDY DURATION: 55 WK), Strain/Sex: WISTAR/MALE, Target Tissue: Type of Lesion: GASTROINTESTINAL TRACT (UPPER): BENIGN OR MALIGNANT TUMOR, Dose [Carcinogen]: 100 MG/L IN DRINKING WATER FOR FIRST 25 WK, Promoter: GLYOXAL, 107-22-2) | tumour outcome (control, treated, inhibition, significance) (Carcinogen: N-METHYL-N'-NITRO-N-NITROSOUGUANIDINE, 70-25-7, Dose [Inhibitor]: 0, 25 PPM IN DIET FOR THE DURATION OF THE STUDY (STUDY DURATION: 55 WK), Strain/Sex: WISTAR/MALE, Target Tissue: Type of Lesion: GLANDULAR STOMACH: ADENOMA, ADENOCARCINOMA OR SARCOMA, Dose [Carcinogen]: 100 MG/L IN DRINKING WATER FOR FIRST 25 WK, Promoter: GLYOXAL, 107-22-2) | tumour outcome (control, treated, inhibition, significance) (Carcinogen: N-METHYL-N'-NITRO-N-NITROSOUGUANIDINE, 70-25-7, Dose [Inhibitor]: 0, 100 PPM IN DIET FOR FIRST 25 WK (STUDY DURATION: 55 WK), Strain/Sex: WISTAR/MALE, Target Tissue: Type of Lesion: BILE DUCT: CHOLANGIOMA, Dose [Carcinogen]: 100 MG/L IN DRINKING WATER FOR FIRST 25 WK, Promoter: GLYOXAL, 107-22-2) | tumour outcome (control, treated, inhibition, significance) (Carcinogen: N-METHYL-N'-NITRO-N-NITROSOUGUANIDINE, 70-25-7, Dose [Inhibitor]: 0, 100 PPM IN DIET FOR FIRST 25 WK (STUDY DURATION: 55 WK), Strain/Sex: WISTAR/MALE, Target Tissue: Type of Lesion: DUODENUM: ADENOMA, ADENOCARCINOMA OR SARCOMA, Dose [Carcinogen]: 100 MG/L IN DRINKING WATER FOR FIRST 25 WK, Promoter: GLYOXAL, 107-22-2) | tumour outcome (control, treated, inhibition, significance) (Carcinogen: N-METHYL-N'-NITRO-N-NITROSOUGUANIDINE, 70-25-7, Dose [Inhibitor]: 0, 100 PPM IN DIET FOR FIRST 25 WK (STUDY DURATION: 55 WK), Strain/Sex: WISTAR/MALE, Target Tissue: Type of Lesion: FORESTOMACH: PAPILLOMA, Dose [Carcinogen]: 100 MG/L IN DRINKING WATER FOR FIRST 25 WK, Promoter: GLYOXAL, 107-22-2) | tumour outcome (control, treated, inhibition, significance) (Carcinogen: N-METHYL-N'-NITRO-N-NITROSOUGUANIDINE, 70-25-7, Dose [Inhibitor]: 0, 100 PPM IN DIET FOR FIRST 25 WK (STUDY DURATION: 55 WK), Strain/Sex: WISTAR/MALE, Target Tissue: Type of Lesion: GASTROINTESTINAL TRACT (UPPER): BENIGN OR MALIGNANT TUMOR, Dose [Carcinogen]: 100 MG/L IN DRINKING WATER FOR FIRST 25 WK, Promoter: GLYOXAL, 107-22-2) | tumour outcome (control, treated, inhibition, significance) (Carcinogen: N-METHYL-N'-NITRO-N-NITROSOUGUANIDINE, 70-25-7, Dose [Inhibitor]: 0, 100 PPM IN DIET FOR FIRST 25 WK (STUDY DURATION: 55 WK), Strain/Sex: WISTAR/MALE, Target Tissue: Type of Lesion: GLANDULAR STOMACH: ADENOMA, ADENOCARCINOMA OR SARCOMA, Dose [Carcinogen]: 100 MG/L IN DRINKING WATER FOR FIRST 25 WK, Promoter: GLYOXAL, 107-22-2) | tumour outcome (control, treated, inhibition, significance) (Carcinogen: N-BUTYL-N-(4-HYDROXYBUTYL)NITROSAMINE, 3817-11-6, Dose [Inhibitor]: 0.5% DIET DAILY FOR 34 WK STARTING AT COMPLETION OF CARCINOGEN TREATMENT (STUDY DURATION: 38 WK), Strain/Sex: F344/MALE, Target Tissue: Type of Lesion: URINARY BLADDER: PAPILLOMA, Dose [Carcinogen]: 0.01% IN DRINKING WATER FOR 4 WK, Promoter: NONE USED) | tumour outcome (control, treated, inhibition, significance) (Carcinogen: N-BUTYL-N-(4-HYDROXYBUTYL)NITROSAMINE, 3817-11-6, Dose [Inhibitor]: 5% DIET DAILY FOR 34 WK STARTING AT COMPLETION OF CARCINOGEN TREATMENT (STUDY DURATION: 38 WK), Strain/Sex: F344/MALE, Target Tissue: Type of Lesion: URINARY BLADDER: PAPILLOMA, Dose [Carcinogen]: 0.01% IN DRINKING WATER FOR 4 WK, Promoter: NONE USED)
1 | Nc1nc(N)nc(-c2cc(Cl)ccc2Cl)n1 | 14/14 (100%), 0/15 (0%), 100%, not calculated | 6/12 (50%), 4/16 (25%), 50%, not significant | 3/12 (25%), 1/16 (6%), 76%, not significant | 11/12 (92%), 9/16 (56%), 39%, p<0.05 | 9/12 (75%), 6/16 (38%), 49%, p<0.05 | 1/12 (8%), 0/12 (0%), 100%, not significant | 3/12 (25%), 1/12 (8%), 68%, not significant | 11/12 (92%), 7/12 (58%), 37%, not significant | 9/12 (75%), 5/12 (42%), 44%, not significant | 1/12 (8%), 0/12 (0%), 100%, not significant and 1/12 (8%), 0/15 (0%), 100%, not significant | 6/12 (50%), 4/12 (33%), 34%, not significant and 6/12 (50%), 4/15 (20%), 60%, not significant | 3/12 (25%), 3/12 (25%), 0%, not significant and 3/12 (25%), 1/15 (7%), 72%, not significant | 11/12 (92%), 5/12 (42%), 54%, p<0.02 and 11/12 (92%), 6/15 (40%), 57%, p<0.01 | 9/12 (75%), 3/12 (25%), 67%, p<0.02 and 9/12 (75%), 5/15 (33%), 56%, p<0.02 | – | –
2 | O=C1NS(=O)(=O)c2ccccc21 | – | – | – | – | – | – | – | – | – | – | – | – | – | – | 33%, 33%, 0%, not significant | 33%, 20%, 39%, not significant
